Usually IC50 stands for the concentration needed to halve the response being measured.

Chain of KRas G12D/Q61H double mutant (P01116-2 other isoform, or with tags, fused parts or gaps G12D/Q61H): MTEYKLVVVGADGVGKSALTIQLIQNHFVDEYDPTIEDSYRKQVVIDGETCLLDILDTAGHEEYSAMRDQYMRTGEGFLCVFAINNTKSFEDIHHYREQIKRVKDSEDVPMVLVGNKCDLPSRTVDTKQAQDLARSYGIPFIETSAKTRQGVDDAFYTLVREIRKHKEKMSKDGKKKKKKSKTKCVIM

The target in the first experiment is KRas G12D/Q61H double mutant (Homo sapiens (Human), UniProt P01116, G12D/Q61H). Description: Ras GTP binding domain inhibition assay (labeled GTP). The following applies: 20 μM compound; KRas G12D/Q61H double mutant; read-out: % Inhibition at 20 μM of K-Ras mutant and wild-type protein, KRas G12D Q61H. How it is done:
Buffer-I: • 50 mM Tris, pH 7.5 • 150 mM NaCl (optional) • 1 mM MgCl2 • 1 mM DTT. • KRas G12D mutant protein was expressed as a His-tagged protein. Purified His-KRas G12D protein was diluted in buffer-I to a final concentration of 3-10 μg/ml. • 200 μl of the diluted His-KRas G12D protein was added to a nickel coated 96 well plate and incubated overnight at 4° C. • The next day, wells were washed 3× in 200 μl of Buffer-I. • Then 200 μl of Buffer-I were added to each well in the presence of 1% DMSO. • Tested compounds were added to the protein-coated wells at a concentration of 20 μM, and incubated for 3 hours at room temperature. While performing IC50 measurements a serial dilution of all tested concentrations was prepared.
Then 22 μl of Cy3-GTP or Cy5-GTP was added to each well. The labeled GTP was incubated for 45 min. at room temperature. • Following GTP incubation, wells were washed 3× in Buffer-I, and 200 μl of Buffer-I were added to each well. • Following washes, the amount of bound labeled-GTP was measured with an Eppendorf AF2200 plate reader.
By substituting KRas G12D mutant protein with KRas G12C mutant, KRas wild type, KRas Q61H mutant, KRas G12D/Q61H double mutant or KRas G12C/Q61H double mutant under the assay conditions described above, KRas G12C mutant KRas wild type, KRas Q61H mutant, KRas G12D/Q61H double mutant and KRas G12C/Q61H double mutant inhibition, respectively, were each determined.
Regarding `CC(NC(=O)C1CSC(c2ccccc2)=N1)c1ccccn1` (centres unmarked), the inhibition at 20 µM was 1 to 25%.
In the case of `COCCCCC(=O)N(c1cc(C)ccc1F)C(C)c1ccc(C)cc1` (centres unmarked), the inhibition at 20 µM fell in the range of 1 to 25%.
For `COc1ccc(-c2nc(CSc3nnc(CC(C)c4ccccc4)o3)cs2)cc1OC` (centres unmarked), the inhibition at 20 µM was 25 to 50%.
Take `CCOC(=O)c1ccc2c(c1)nc(C1CCN(S(=O)(=O)c3cccs3)CC1)n2CC`: the inhibition at 20 µM was in the range of 25 to 50%.
On the same count and under the same terms, with `O=C(c1ccc(CSc2nc3ccccc3[nH]2)cc1)N1N=CCC1(O)C(F)(F)F` (centres unmarked) the figure was 25 to 50%; with `CC1CCC(NS(=O)(=O)CC(=O)N2CCCC2Cc2ccccc2Cl)CC1` (centres unmarked), 25 to 50%.
On the same count and under the same terms, with `CCc1ccccc1OCC(=O)N1N=C(c2ccccc2)CC1(O)C(F)(F)F` (centres unmarked) the figure was 25 to 50%; with `COc1ccc(C)cc1-n1ccc(C(=O)N2CCCC2C(O)C(F)(F)F)n1` (centres unmarked), 1 to 25%; with `COC(=O)c1sccc1S(=O)(=O)NCCCCCc1nc(-c2ccc(C)cc2)no1`, 25 to 50%.
`Cc1sc2nc(-c3ccccn3)nc(NCC(=O)N3CCC(O)CC3)c2c1-c1ccccc1`: the inhibition at 20 µM lay within 25 to 50%.
In the case of `OCC1(Cc2ccccc2)CCCN1c1nc(-c2ccccn2)nc2c1CCC2` (centres unmarked), the inhibition at 20 µM fell in the range of 25 to 50%.
On the same count and under the same terms, the value for `Cc1ccc(OC(C)C(=O)Nc2ccccc2S(=O)(=O)NC(C)(C)C)c(Br)c1` (centres unmarked) was 1 to 25%; that for `COc1ccc(Cl)cc1CN(c1ccccc1F)S(=O)(=O)C(C)C` was 25 to 50%.
As to `Cc1ccc(CN(Cc2ccco2)C(=O)C(c2ccccc2)c2ccccc2)o1`, the inhibition at 20 µM was in the range of 25 to 50%.
As for `CCC(C)N(C(=O)CS(=O)(=O)c1nc(-c2ccccc2)cs1)C(C)CC` (centres unmarked), the inhibition at 20 µM lay within 25 to 50%.
On the same count and under the same terms, with `CCc1nc2ccccc2c(C(=O)OCC(=O)c2cc(C)n(CCOC)c2C)c1C` the figure was 1 to 25%.

The same experiment, now with this note: 20 μM compound; read-out: % Inhibition at 20 μM KRas G12D Q61H.
Regarding `OC[C@H]1C=C[C@@H](Nc2nc(-c3ccccn3)nc3c2CCC3)C1`, the inhibition at 20 µM is 25 to 50%.
In the case of `C=CCCOC(C)C(=O)Nc1nnc(-c2ccccn2)[nH]1` (centres unmarked), the inhibition at 20 µM fell in the range of 25 to 50%.
As for `COc1cc(F)ccc1N1CCN(C(=O)c2csc3c(O)nc(-c4ccccn4)nc23)CC1`, the inhibition at 20 µM lay in the range of 25 to 50%.
`COc1ccccc1CN(Cc1cccs1)C(=O)c1ccc(N2CCCS2(=O)=O)cc1`: the inhibition at 20 µM is 25 to 50%.
As for `COc1ccccc1CC(=O)Nc1nnc(-c2ccccn2)[nH]1`, the inhibition at 20 µM was in the range of 25 to 50%.
Consider `c1cc2c(cc1-c1csc(C3CC3)n1)CCC2`, for which the inhibition at 20 µM is 1 to 25%.
Take `CCC(C)c1ccc(S(=O)(=O)N(C)C(c2ccccc2)c2ccccn2)cc1` (centres unmarked): the inhibition at 20 µM was 25 to 50%.
As to `CCN(Cc1ccc(S(=O)(=O)N(C)C)o1)c1ccccc1`, the inhibition at 20 µM lay in the range of 25 to 50%.
The same measure, in the same setting: with `CCOC(=O)c1sc(N(C2CC2)S(=O)(=O)c2ccc(OC)c(C)c2)nc1C` the figure was 1 to 25%.
The same measure, in the same setting: the value for `COc1ccc(CN(Cc2cccs2)C(=O)c2cc3ccccc3o2)cc1OC` was 25 to 50%; that for `O=C(c1csc2c(O)nc(-c3ccccn3)nc12)N1CCC(N2CCOCC2)CC1` [drawing 2678] was 25 to 50%.
On to `O=C(c1csc2c(O)nc(-c3ccccn3)nc12)N1CCNC(c2cccc(Cl)c2)C1` (centres unmarked), for which the inhibition at 20 µM is 25 to 50%.
As for `Nc1nc(O)c2scc(-c3ccccc3)c2n1` [drawing 2692], the inhibition at 20 µM was 1 to 25%.
Same read-out and setting: with `Cc1ccc(-c2nnc(C(C)N3CCCc4ccccc43)o2)cc1` (centres unmarked) the figure was 1 to 25%.
As to `Nc1nc(-c2ccccn2)nc2sccc12` [drawing 2821], the inhibition at 20 µM lay within 25 to 50%.
Turning to `CCN(CC)S(=O)(=O)c1ccc(N2CCOCC2)c(C(=O)NCCCn2cnc3ccccc32)c1`, the inhibition at 20 µM was in the range of 1 to 25%.
Consider `Cc1cc(C)n2nc(CC(=O)N(Cc3ccccc3F)C3CC3)nc2n1`, for which the inhibition at 20 µM lay within 25 to 50%.
For the molecule `CC(=O)N1CCC(C(=O)Nc2nnc(-c3ccccn3)[nH]2)CC1`, the inhibition at 20 µM is 25 to 50%.
Take `CN(C(=O)c1ccc(COc2ccccc2F)o1)c1nccs1`: the inhibition at 20 µM lay within 25 to 50%.
Consider `CC(c1nc2ccccc2n1CCOc1ccccc1)N1CCCCC1` (centres unmarked), for which the inhibition at 20 µM was 1 to 25%.
With `FC(F)(F)c1ccnc(N2CCN(CCc3ccncc3)CC2)n1`, the inhibition at 20 µM was in the range of 25 to 50%.
On to `COc1ccc(OC)c(-c2csc(C3CC3)n2)c1`, for which the inhibition at 20 µM lay within 25 to 50%.
On to `O=C(c1csc2c(O)nc(-c3ccccn3)nc12)N1CCN(c2cccc(Cl)c2)CC1` [drawing 2719], for which the inhibition at 20 µM was 25 to 50%.
For the molecule `COc1ccccc1N1CCN(C(=O)c2csc3c(O)nc(-c4ccccn4)nc23)CC1` [drawing 2712], the inhibition at 20 µM lay in the range of 25 to 50%.
In the case of `CN(C)C1CN(C(=O)Nc2nc(-c3cccnc3)cs2)C1`, the inhibition at 20 µM is 1 to 25%.
The same measure, in the same setting: with `Cc1sc(C2CC2)nc1-c1ccc(F)c(F)c1` the figure was 25 to 50%.
The same measure, in the same setting: the value for `Cc1ccc2cccc(OS(=O)(=O)N3CCOCC3)c2n1` was 25 to 50%.
For `CC(C)Cc1noc(CNc2cc(C(F)(F)F)ccc2N2CCCC2)n1`, the inhibition at 20 µM fell in the range of 25 to 50%.
The same measure, in the same setting: with `CN(Cc1ccco1)C(=O)c1ccc(COc2ccccc2)o1` the figure was 1 to 25%; with `Cc1cccc(C)c1Oc1ccccc1NCc1nnc(C2CC2)o1`, 25 to 50%.
With `O=C(c1csc2c(O)nc(-c3ccccn3)nc12)N1CCNC(c2cccc(F)c2)C1` (centres unmarked) [drawing 2737], the inhibition at 20 µM fell in the range of 25 to 50%.
As to `CCCN(CC1CC1)S(=O)(=O)Oc1cccc(C(=O)NCc2ccccc2)c1`, the inhibition at 20 µM fell in the range of 25 to 50%.
For `O=C(c1cocn1)N1CCCc2c(O)nc(-c3ccccn3)nc21` [drawing 2649], the inhibition at 20 µM lay in the range of 25 to 50%.
Regarding `COCc1ccc(C(=O)N(Cc2cccs2)Cc2ccccc2OC)cc1`, the inhibition at 20 µM is 1 to 25%.
Take `Cc1noc(C)c1CNc1ccccc1Cc1ccccc1`: the inhibition at 20 µM is 25 to 50%.
On the same count and under the same terms, with `COc1ccc(S(=O)(=O)N2CCCCCC2)cc1C(=O)NCCc1ccccc1` the figure was 25 to 50%; with `FC(F)(F)c1ccc(N2CCCC2)c(NCc2nc(-c3ccco3)no2)c1`, 25 to 50%; with `COc1cccc(OCCn2c(CN3CCOCC3)nc3ccccc32)c1`, 1 to 25%.
Consider `O=c1[nH]c(-c2cc(OCC(F)F)ccn2)nc2cc(F)ccc12`, for which the inhibition at 20 µM lay within 51 to 75%.
Turning to `COc1cc(CC(=O)Nc2nnc(-c3ccccn3)[nH]2)cc(OC)c1OC`, the inhibition at 20 µM lay within 25 to 50%.
In the case of `Cc1cnc(-c2ccccn2)nc1NC(=O)COCc1ccc(C#N)cc1` [drawing 2815], the inhibition at 20 µM was 25 to 50%.
`O=C(Nc1nnc(-c2ccccn2)[nH]1)c1ccc(Cn2ccccc2=O)o1`: the inhibition at 20 µM fell in the range of 25 to 50%.

The same experiment, now with this note: 20 μM; read-out: KRas G12D Q61H % Inh.
On to `CC(C)(C)c1nc(C(=O)Nc2nnc(-c3ccccn3)[nH]2)cs1` [drawing 2543], for which the inhibition at 20 µM was 51 to 75%.
As for `COc1cccc(CCC(=O)Nc2nnc(-c3ccccn3)[nH]2)c1` [drawing 2453], the inhibition at 20 µM fell in the range of 51 to 75%.
Consider `COc1ccc(COCC(=O)N2CCCc3c(O)nc(-c4ccccn4)nc32)cc1` [drawing 2639], for which the inhibition at 20 µM fell in the range of 76 to 100%.
For the molecule `CC(C1CC1)N(CC(F)(F)F)C(=O)Cc1ccc(-c2ccccc2)cc1` (centres unmarked) [drawing 2630], the inhibition at 20 µM fell in the range of 51 to 75%.
The same measure, in the same setting: with `O=C(Cc1ccc2c(c1)OCCO2)Nc1nnc(-c2ccccn2)[nH]1` [drawing 2551] the figure was 51 to 75%; with `O=C(CCc1c[nH]c2ccccc12)Nc1nnc(-c2ccccn2)[nH]1` [drawing 2471], 51 to 75%; with `COCCCn1ccc(Nc2cc(C)nc(-c3ccccn3)n2)n1` [drawing 2606], 51 to 75%.
Consider `Cc1nc(-c2ccccn2)nc(O)c1CCC(=O)NC1CCc2ccccc21` (centres unmarked) [drawing 2597], for which the inhibition at 20 µM fell in the range of 25 to 50%.
For the molecule `O=C(Nc1nnc(-c2ccccn2)[nH]1)C1CCCC(C(F)(F)F)C1` (centres unmarked) [drawing 2518], the inhibition at 20 µM lay within 51 to 75%.
On the same count and under the same terms, with `Cn1cc(C2CC2C(=O)Nc2nnc(-c3ccccn3)[nH]2)cn1` (centres unmarked) [drawing 2457] the figure was 51 to 75%; with `O=C(Cc1ccc2c(c1)OCO2)Nc1nnc(-c2ccccn2)[nH]1` [drawing 2549], 51 to 75%; with `O=C(Cc1cccc(F)c1)Nc1nc(-c2ccccn2)cs1` [drawing 2577], 25 to 50%.
Turning to `O=C(Nc1nnc(-c2ccccn2)[nH]1)C1=NOC(c2ccccc2)C1` (centres unmarked) [drawing 2544], the inhibition at 20 µM lay in the range of 51 to 75%.
`CC(Oc1ccc(C#N)cc1)C(=O)Nc1nnc(-c2ccccn2)[nH]1` (centres unmarked) [drawing 2525]: the inhibition at 20 µM lay in the range of 51 to 75%.
Same read-out and setting: with `Cc1nc(-c2ccccn2)nc(O)c1CCC(=O)NCCc1cccs1` [drawing 2595] the figure was 25 to 50%.

The same experiment, now with this note: at 20 μM; read-out: KRas G12D Q61H % Inh.
Take `Oc1nc(-c2ccccn2)nc2c(-c3cnc4ccccc4c3)csc12` [drawing 3780]: the inhibition at 20 µM lay within 25 to 50%.
As for `Cc1cc2nc(-c3ccccn3)nc(O)c2s1` [drawing 3791], the inhibition at 20 µM lay within 51 to 75%.

The same experiment, now with this note: read-out: KRas G12D Q61H IC50.
For `COc1ccc(COCC(=O)N2CCCc3c(O)nc(-c4ccccn4)nc32)cc1` [drawing 2639], the IC50 is under 5 µM.
`O=C(CCc1c[nH]c2ccccc12)Nc1nnc(-c2ccccn2)[nH]1` [drawing 2471]: the concentration for half-maximal inhibition (IC50) is under 5 µM.

(Values after patent US10940139B2, “Compounds that interact with the Ras superfamily for the treatment of cancers, inflammatory diseases, rasopathies, and fibrotic disease” (Shy Therapeutics LLC, priority 2017, dated 2021).)
